{
  "source": "paper PMC4956231",
  "about": "“Molecular Mechanisms for Drug Hypersensitivity Induced by the Malaria Parasite’s Chloroquine Resistance Transporter” (PLoS Pathogens, 2016)",
  "key": {"[1]": {"system": "C2^GC03 (PfCRT^3D7)", "experiment": "P. falciparum H+ efflux assay (DV alkalinization rate)", "assay_type": "cell-based, Plasmodium falciparum", "description": "(§1) Saponin-isolated trophozoite-stage parasites containing the membrane-impermeant pH-sensitive fluorescent indicator fluorescein-dextran (10,000 MW; Life Technologies) in their DVs were prepared as outlined elsewhere. The isolated parasites were washed and suspended in a saline solution (125 mM NaCl, 5 mM KCl, 1 mM MgCl2, 20 mM glucose, 25 mM HEPES; pH 7.1) at a density of 1–3 × 10^7 cells/mL. The fluorometry experiments were performed as described previously. The pH of the DV was monitored at 37°C using a PerkinElmer Life Sciences LS50B fluorometer with a dual excitation Fast Filter accessory (excitation 490 and 450 nm; emission 520 nm). The experiments entailed monitoring the alkalinization of the DV upon addition of the V-type H^+-ATPase inhibitor concanamycin A (100 nM; Sigma-Aldrich), in the presence or absence of the drugs of interest. Half-times for DV alkalinization (t1/2) were calculated as outlined elsewhere. In all cases, five independent experiments were performed on different days."}, "[2]": {"system": "C6^7G8 (PfCRT^7G8)", "experiment": "P. falciparum H+ efflux assay (DV alkalinization rate)", "assay_type": "cell-based, Plasmodium falciparum", "description": "as §1"}, "[3]": {"system": "C4^Dd2 (PfCRT^Dd2)", "experiment": "P. falciparum H+ efflux assay (DV alkalinization rate)", "assay_type": "cell-based, Plasmodium falciparum", "description": "as §1"}, "[4]": {"molecular_target": "76I-PfCRT^K1 (Plasmodium falciparum, UniProt Q9N623, A220S/K76I/M74I/N326S/N75E/Q271E/R371I)", "sequence (Q9N623 whole entry A220S/K76I/M74I/N326S/N75E/Q271E/R371I)": "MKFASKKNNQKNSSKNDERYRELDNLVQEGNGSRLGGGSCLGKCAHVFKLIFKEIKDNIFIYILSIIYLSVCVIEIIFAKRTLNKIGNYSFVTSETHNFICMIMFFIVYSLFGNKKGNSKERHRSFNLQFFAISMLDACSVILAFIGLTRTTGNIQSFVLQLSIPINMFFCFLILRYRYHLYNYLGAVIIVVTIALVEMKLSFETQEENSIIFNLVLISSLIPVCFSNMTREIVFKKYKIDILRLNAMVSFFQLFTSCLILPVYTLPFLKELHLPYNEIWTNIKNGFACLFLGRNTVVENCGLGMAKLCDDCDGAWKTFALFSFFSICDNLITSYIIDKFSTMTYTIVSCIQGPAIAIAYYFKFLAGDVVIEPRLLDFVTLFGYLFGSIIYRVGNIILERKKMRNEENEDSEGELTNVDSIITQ", "assay_type": "cell-based", "description": "(§2) For each treatment, 10 oocytes were transferred to a 5 mL polystyrene round bottom tube (Falcon) and washed twice with 3.5 mL of ND96 buffer, with the residual buffer removed by pipette. […] The assay was terminated by removing the reaction buffer with a pipette and washing the oocytes twice with 3.5 mL of ice-cold ND96 buffer. Each oocyte was transferred to a separate well of a white 96-well plate (NUNC or PerkinElmer), incubated overnight at room temperature in 30 μL of 10% SDS, and mixed on an orbital shaker the following day for approximately 5 min. The lysed oocyte was then combined with 150 μL of MicroScint-40 microscintillant (PerkinElmer), the plate covered with a TopSeal-A (PerkinElmer), and the radioactivity measured with a PerkinElmer MicroBeta^2 microplate liquid scintillation analyzer."}, "[5]": {"molecular_target": "76I,369F-PfCRT^K1 (Plasmodium falciparum, UniProt Q9N623, A220S/K76I/M74I/N326S/N75E/Q271E/R371I/V369F)", "sequence (Q9N623 whole entry A220S/K76I/M74I/N326S/N75E/Q271E/R371I/V369F)": "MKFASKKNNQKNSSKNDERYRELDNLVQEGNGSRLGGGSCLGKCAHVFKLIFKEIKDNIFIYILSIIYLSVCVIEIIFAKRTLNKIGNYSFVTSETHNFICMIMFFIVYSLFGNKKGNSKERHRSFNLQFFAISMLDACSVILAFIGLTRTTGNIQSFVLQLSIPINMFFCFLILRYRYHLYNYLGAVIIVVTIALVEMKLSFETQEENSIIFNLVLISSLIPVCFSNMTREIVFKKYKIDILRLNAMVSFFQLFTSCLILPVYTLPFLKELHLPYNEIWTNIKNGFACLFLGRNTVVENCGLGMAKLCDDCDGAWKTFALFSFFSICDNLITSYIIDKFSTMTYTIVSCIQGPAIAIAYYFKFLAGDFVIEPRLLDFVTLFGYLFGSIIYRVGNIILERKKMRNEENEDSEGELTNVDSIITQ", "experiment": "[3H]drug transport into Xenopus oocytes expressing PfCRT", "assay_type": "cell-based", "description": "as §2"}, "[6]": {"system": "noninjected oocytes", "experiment": "[3H]drug uptake into noninjected oocytes (background accumulation)", "assay_type": "cell-based, Xenopus laevis", "details": "for rate of CQ uptake: [3H]CQ […]", "description": "as §2"}, "[7]": {"system": "P. falciparum line 106/1^72R,76I", "details": "106/1^72R,76I (72R,76I-PfCRT^K1); IC50 in line divided by IC50 in drug-sensitive reference strain; cited from earlier work"}, "[8]": {"system": "PfCRT^K1", "experiment": "[3H]drug transport into Xenopus oocytes expressing PfCRT", "assay_type": "cell-based, Plasmodium falciparum", "description": "as §2"}, "[9]": {"system": "PfCRT^Dd2", "experiment": "[3H]drug transport into Xenopus oocytes expressing PfCRT", "assay_type": "cell-based, Plasmodium falciparum", "details": "PfCRT^Dd2-expressing oocytes; [3H]CQ […], pH 5.5, 15 μM unlabeled CQ (S5 Fig)", "description": "as §2"}, "[10]": {"system": "76N-PfCRT^K1", "experiment": "[3H]drug transport into Xenopus oocytes expressing PfCRT", "assay_type": "cell-based, Plasmodium falciparum", "details": "transport via 76N-PfCRT^K1 in oocytes, CQ pH 6.0, quinine and quinidine pH 5.0", "description": "as §2\nNote that noninjected oocytes and oocytes expressing PfCRT^3D7 take up [^3H]CQ to similar (low) levels via simple diffusion of the neutral species of the drug; this represents the ‘background’ level of [^3H]CQ accumulation in oocytes (refer to Martin et al. for full data and discussion)."}, "[11]": {"system": "3D7", "experiment": "P. falciparum drug susceptibility (parasite proliferation, SYBR Safe)", "assay_type": "cell-based", "details": "Plasmodium falciparum, Control, 72 h", "description": "(§3) Parasite proliferation was measured in 96-well plates using a fluorescent DNA-intercalating dye and a protocol described in detail previously. Briefly, cell suspensions containing erythrocytes infected with ring-stage parasites (hematocrit and parasitemia of approximately 2% and 1%, respectively) were incubated at 37°C for 72 h. The samples were frozen, thawed, and then processed by the addition of 100 μL (per well) of SYBR Safe DNA Gel Stain (Molecular Probes; 0.2 μL/mL) in a lysis buffer (20 mM Tris, 5 mM EDTA, 0.008% w/v saponin, and 0.08% v/v Triton X-100; pH 7.5). The fluorescence emanating from each well was measured immediately using a Tecan Infinite M1000 PRO microplate reader (excitation 490 nm; emission 520 nm) and the average fluorescence from wells containing the highest concentration of the drug was subtracted from the resulting values. The level of parasite proliferation in the presence of each drug concentration was expressed as a percentage of the proliferation measured in the absence of the drug for which the IC50 was being determined. The IC50s were determined in SigmaPlot by a least-squares fit of the equation y = a/ [1 ([drug]/IC50)c] to the data, where y is the percent parasite proliferation, a is the maximum change in the percent parasite proliferation, and c is a fitted constant. In all cases, five independent experiments were performed (on different days), and within each experiment measurements were averaged from three replicates."}, "[12]": {"system": "C6^7G8", "experiment": "P. falciparum drug susceptibility (parasite proliferation, SYBR Safe)", "assay_type": "cell-based", "details": "Plasmodium falciparum, Control, 72 h", "description": "as §3"}, "[13]": {"system": "C4^Dd2", "experiment": "P. falciparum drug susceptibility (parasite proliferation, SYBR Safe)", "assay_type": "cell-based", "details": "Plasmodium falciparum, Control, 72 h", "description": "as §3"}, "[14]": {"system": "C2^GC03", "experiment": "P. falciparum drug susceptibility (parasite proliferation, SYBR Safe)", "assay_type": "cell-based", "details": "Plasmodium falciparum, Control, 72 h", "description": "as §3"}, "[15]": {"system": "Dd2", "experiment": "P. falciparum drug susceptibility (parasite proliferation, SYBR Safe)", "assay_type": "cell-based", "details": "Plasmodium falciparum, DD2, 72 h", "description": "as §3"}, "[16]": {"system": "P. falciparum line 106/1^76I", "details": "106/1^76I (76I-PfCRT^K1); IC50 in line divided by IC50 in drug-sensitive reference strain; cited from earlier work"}, "[17]": {"system": "163R,356V-PfCRT^K1", "experiment": "[3H]drug transport into Xenopus oocytes expressing PfCRT", "assay_type": "cell-based, Plasmodium falciparum", "details": "oocytes expressing 163R,356V-PfCRT^K1; pH 5.0, 50 μM unlabeled amantadine", "description": "as §2"}},
  "note": "“And” between values parts separate entries of the source, which are not always exact repeats. Equal values may be shown once. Marks after values point to notes of the source that are not given here.",
  "data": [
    {"smiles": "CCN(CC)CCCC(C)Nc1ccnc2cc(Cl)ccc12", "note": "(stereo not shown) [CQ, chloroquine]", "values": [
      {"measurement": "effect on rate of DV alkalinization", "setting": "[1]; C2^GC03 (CQ-sensitive), CQ […], concanamycin A 100 nM", "value": "without effect"},
      {"measurement": "effect on rate of DV alkalinization", "setting": "[2]; C6^7G8 (CQ-resistant), CQ […], concanamycin A 100 nM", "value": "increased"},
      {"measurement": "effect on rate of DV alkalinization", "setting": "[3]; C4^Dd2 (CQ-resistant), CQ […], concanamycin A 100 nM", "value": "increased"},
      {"measurement": "Apparent Vmax", "setting": "[4]; transport via 76I-PfCRT^K1 in oocytes, CQ pH 6.0, quinine and quinidine pH 5.0", "value": "29.3 pmol per oocyte/h and 29.3 ± 7.2^c,f (5) pmol per oocyte/h"},
      {"measurement": "Apparent Vmax", "setting": "[5]; transport via 76I,369F-PfCRT^K1 in oocytes, CQ pH 6.0", "value": "13.8 pmol per oocyte/h and 13.8 ± 1.3^c (5) pmol per oocyte/h"},
      {"measurement": "rate of CQ uptake", "setting": "[6]; pH 5.5, 15 μM unlabeled CQ (S5 Fig)", "value": "1.41 ± 0.02", "unit": "pmol per oocyte/h"},
      {"measurement": "rate of CQ uptake", "setting": "[6]; pH 6.0, 15 μM unlabeled CQ (Fig 2A)", "value": "0.98 ± 0.13", "unit": "pmol per oocyte/h"},
      {"measurement": "Drug susceptibility (In vitro resistance index)", "setting": "[7]", "value": "1.13 ± 0.07"},
      {"measurement": "rate of CQ uptake", "setting": "[8]; oocytes expressing PfCRT^K1, [3H]CQ […], pH 6.0, 15 μM unlabeled CQ (Fig 2A)", "value": "6.75 ± 0.94", "unit": "pmol per oocyte/h"},
      {"measurement": "Apparent Vmax", "setting": "[8]; transport via PfCRT^K1 in oocytes, CQ pH 6.0, quinine and quinidine pH 5.0", "value": "72 ± 3 (9) pmol per oocyte/h"},
      {"measurement": "Km", "setting": "[8]; transport via PfCRT^K1 in oocytes, CQ pH 6.0, quinine and quinidine pH 5.0, 76K-PfCRT^K1 control subtracted, read-out: Apparent Km", "value": "282 ± 5", "unit": "µM"},
      {"measurement": "rate of CQ uptake", "setting": "[9]", "value": "24 ± 1.3", "unit": "pmol per oocyte/h"},
      {"measurement": "Apparent Vmax", "setting": "[10]", "value": "48.0 ± 4.5^c,f (7) pmol per oocyte/h"},
      {"measurement": "Km", "setting": "[10]; read-out: Apparent Km", "value": "303 ± 5", "unit": "µM"},
      {"measurement": "IC50", "setting": "[11]", "value": "0.025 ± 0.0011", "unit": "µM"},
      {"measurement": "IC50", "setting": "[12]", "value": "0.087 ± 0.0021", "unit": "µM"},
      {"measurement": "IC50", "setting": "[13]", "value": "0.149 ± 0.0046", "unit": "µM"},
      {"measurement": "IC50", "setting": "[14]", "value": "0.027 ± 0.0016", "unit": "µM"},
      {"measurement": "IC50", "setting": "[15]", "value": "0.151 ± 0.0048", "unit": "µM"},
      {"measurement": "Drug susceptibility (In vitro resistance index)", "setting": "[16]", "value": "15.66 ± 2.20"}
    ]},
    {"smiles": "NC12CC3CC(CC(C3)C1)C2", "note": "[amantadine]", "values": [
      {"measurement": "substrate of PfCRT in situ (rate of DV alkalinization)", "setting": "[1]; C2^GC03, wild-type PfCRT (PfCRT^3D7), amantadine 10 μM", "value": "not of wild-type PfCRT"},
      {"measurement": "substrate of PfCRT in situ (rate of DV alkalinization)", "setting": "[2]; C6^7G8, PfCRT^7G8, amantadine 10 μM", "value": "is a substrate"},
      {"measurement": "substrate of PfCRT in situ (rate of DV alkalinization)", "setting": "[3]; C4^Dd2, PfCRT^Dd2, amantadine 10 μM", "value": "is a substrate"},
      {"measurement": "[3H]amantadine accumulation relative to noninjected oocytes", "setting": "[4]; oocytes expressing 76I-PfCRT^K1, pH 5.0, 50 μM unlabeled amantadine", "value": "marked increase"},
      {"measurement": "amantadine transport activity", "setting": "[5]; oocytes expressing 76I,369F-PfCRT^K1, pH 5.0, 50 μM unlabeled amantadine", "value": "very low (but statistically significant) level"},
      {"measurement": "rate of amantadine uptake", "setting": "[6]; [3H]amantadine 0.146 μM, pH 5.0, 50 μM unlabeled amantadine", "value": "5.4 ± 0.9", "unit": "nmol per oocyte/h"},
      {"measurement": "rate of amantadine uptake", "setting": "[8]; PfCRT^K1-expressing oocytes, [3H]amantadine 0.146 μM, pH 5.0, 50 μM unlabeled amantadine", "value": "12 ± 2.8", "unit": "nmol per oocyte/h"},
      {"measurement": "[3H]amantadine accumulation relative to noninjected oocytes", "setting": "[8]; oocytes expressing PfCRT^K1, pH 5.0, 50 μM unlabeled amantadine", "value": "marked increase"},
      {"measurement": "[3H]amantadine accumulation relative to background", "setting": "[17]", "value": "failed to take up"},
      {"measurement": "IC50", "setting": "[11]", "value": "344 ± 8.9", "unit": "µM"},
      {"measurement": "IC50", "setting": "[12]", "value": "43 ± 2.9", "unit": "µM"},
      {"measurement": "IC50", "setting": "[13]", "value": "8.4 ± 0.06", "unit": "µM"},
      {"measurement": "IC50", "setting": "[14]", "value": "335 ± 9.5", "unit": "µM"},
      {"measurement": "IC50", "setting": "[15]", "value": "11 ± 0.1", "unit": "µM"}
    ]}
  ]
}
